In patent publication US11266642B2, “Small molecule inhibitors of HLA-DR3 binding for treating autoimmune thyroiditis” (ICAHN SCHOOL OF MEDICINE AT MOUNT SINAI, priority 2015, dated 2022):

Columns and labels:
HLA-DR2 = experiment: MBP87-99 binding to DR2 expressing cells, flow cytometry (specificity control); type: cell-based, human; conditions: biotinylated MBP87-99, 24 hours
[1] = biological target: T1, HLA-DR3 on VAVY cells (HLA-DRβ1-Arg74 positive) (Homo sapiens, UniProt P01903+P01911, A100K/A102G/A103R/A169T/F55Y/I96L/K41T/L162R/M171V/P40S/Q125H/Q178H/Q39Y/R42S/S66N/T106N/T262R/W38E/Y61H); experiment: Tg.2098 peptide binding to VAVY cells, flow cytometry; type: cell-based; conditions: 0.025 mM Ia, 7 h pre-incubation; 0.5 μM Tg.2098, 24 h; 42.7% without Ia
T1 construct: VAVY B-cell line that is homozygous for DR3 (confirmed to contain DRβ1-Arg74); host or cells: VAVY B-cell line
Experimental: VAVY cells (European Collection of Cell Cultures) were cultured in RPMI (ATCC, Manassas, Va.) supplied with 10% FBS (Sigma-Aldrich, St. Louis, Mo.), 1% Penicillin-Streptomycin (Corning, N.Y.), 2 mM glutamine (Corning, N.Y.) and […] ciprofloxacin hydrochloride (Hospira, Lake Forest, Ill.). Cells were grown at 37° C., 5% CO2 and passaged 1-2 times a week. Cells expressing DR2 (National Development and Research Institutes, Inc) were cultured using the same conditions as VAVY cells. N-terminal biotinylated peptide Tg.2098 was used to test for binding to VAVY cells which express HLA-DR3 on their surface (HLA-DRβ1-Arg74 positive). APC Streptavidin (BD Biosciences, Franklin Lakes, N.J.) was used to detect the biotinylated peptides. A scrambled peptide of Tg.2098 (scr2098) was used as a negative control. VAVY cells were seeded at 2.5×10^6 cells/mL in a 24-well plate (BD Biosciences) and pre-incubated for 7 hours with 0.025 mM of compound Ia or 40% Captisol (Ligand Pharmaceuticals, Inc, La Jolla, Calif.) [the vehicle used to dissolve test compound in this experiment], before 0.5 μM Tg.2098 was added. After 24 h incubation, cells were stained with PE mouse anti-human HLA-DR (BD Biosciences) and APC Streptavidin to detect binding of the peptide to VAVY cells and the inhibitory effect of Compound Ia. Inhibition was analyzed by flow cytometry. As a negative control, cells expressing HLA-DR2 were pre-incubated with example Ia or 40% Captisol, before biotinylated myelin basic protein (MBP) 87-99 (known binder to HLA-DR2) was added and incubated for 24 hours. HLA-DR2 cells were stained with PE mouse anti-human HLA-DR and APC Streptavidin to detect binding of biotinylated MBP87-99 to DR2 expressing cells and to assess the inhibitory effect of compound Ia on peptide binding. To confirm the ELISA results we performed binding inhibition studies using the VAVY B-cell line that is homozygous for DR3 (confirmed to contain DRβ1-Arg74). […]

[2] = test system: T-cell proliferative responses to hTg; experiment: In vivo IP administration in hTg-immunized NOD-DR3 mice (EAT), T-cell proliferation CFSE assay; set-up: species or system mouse; conditions: IP 125 μg on days -2, -1, 5, 6; sacrifice day 21; vehicle 2.3 ± 0.5; p=0.0432
Source text: (§1) Mice transgenic for DRB1*0301 were originally generated by G. J Hämmerling and co-workers as previously described [Strauss et al. Immunogenetics 40, 104-108 (1994)]. Briefly, the DR3 (DRA1*0101/DRB1*0301) transgenes were inserted into (C57BL/6×DBA/2) F1 embryos and the progeny were back-crossed to B10.Q mice. The DR3 mice were crossed with I-Aβ knockouts (C57BL/6×129) to obtain mice lacking murine MHC class II and expressing human DR3. The transgenic mouse line was maintained by intercrossing. The background non-MHC genes in the DR3 transgenic line was 50% C57BL/10 genes and 50% contribution from CBA, C57BL/6, and 129 genes. These mice were then back-crossed into NOD background to produce the NOD-DR3 mice [Flynn et al. J Autoimmun, 17, 7-15 (2001)]. The transgene was confirmed to be HLA-DRβ1-Arg74 positive. […]
Seven female NOD-DR3 mice (6-10 weeks old) were injected IP with […] Compound Ia on day (−2) and day (−1), followed by SQ immunization of human thyroglobulin (hTg) mixed with CFA on day 0. […] The stimulation index was calculated by using the formula described above: Stimulation index=[% proliferating lymphocytes (hTg, peptide or mitogen-treated)]/[% proliferating lymphocytes (medium-treated)].

[3] = test system: T-cell proliferative responses to hTg or Tg.2098; experiment: In vivo PO administration in hTg-immunized NOD-DR3 mice (EAT), T-cell proliferation CFSE assay; set-up: species or system mouse; conditions: PO gavage 250 μg on days -2, -1, 5, 6, sacrifice day 21
Source text: as §1, with “positive. Mice were bred in a pathogen-free facility (Icahn School of Medicine at Mount Sinai, New York, N.Y.), and expression of HLA-DR3 was tested by PCR using DR3-specific primers: forward primer 5′ CGCTTCGACAGCGAC 3′ (SEQ ID NO:4) and reverse primer 5′ GACAAATCCACACTCCAC 3′ (SEQ ID NO:5).” for “positive.”
Three female NOD-DR3 mice (6 to 10 weeks old) were fed with 250 μg of Compound Ia PO using gavage on day (−2) and day (−1), followed by SQ immunization of hTg mixed with CFA on day 0. […] Stimulation index was calculated as before.

T1 sequence (P01903 26-254, other chains not shown): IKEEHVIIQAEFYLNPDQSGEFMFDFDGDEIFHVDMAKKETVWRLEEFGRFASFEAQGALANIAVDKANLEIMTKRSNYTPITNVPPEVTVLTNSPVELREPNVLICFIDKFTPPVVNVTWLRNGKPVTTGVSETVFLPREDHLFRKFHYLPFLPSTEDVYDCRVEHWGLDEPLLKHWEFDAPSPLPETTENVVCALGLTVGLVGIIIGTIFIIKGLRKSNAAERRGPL

COc1ccc2cc1Oc1ccc(cc1)C[C@H]1c3c(cc4c(c3Oc3cc5c(cc3OC)CCN(C)[C@@H]5C2)OCO4)CCN1C [Compound Ia, cepharanthine]
block of MBP87-99 binding to DR2 (HLA-DR2): did not block | binding of Tg.2098 to VAVY cells in the presence of Ia [1]: 16.6% | Stimulation index, T-cell stimulation in response to hTg [2]: 1.3 ± 0.2 | Stimulation index, T-cell stimulation in response to hTg ([3]; vehicle 1.8 ± 0.2, p=0.0285): 1.0 ± 0.2 | Stimulation index, T-cell stimulation in response to Tg.2098 ([3]; vehicle 1.9 ± 0.3, p=0.0147): 0.9 ± 0.1
